Results reported in ChEMBL document CHEMBL4428109, “Structure-activity relationship studies of non-carboxylic acid peroxisome proliferator-activated receptor α/δ (PPARα/δ) dual agonists” (Bioorg Med Chem, 2016).
Activity calls are given as the source filed them. The rule behind the calls is not given here.

How the values were obtained:
[1] = biological target: T1, Retinoic acid receptor RXR-beta (Homo sapiens) (UniProt P28702); experiment: Agonist activity at RXRbeta (unknown origin) at < 20 uM
T1 sequence (whole entry): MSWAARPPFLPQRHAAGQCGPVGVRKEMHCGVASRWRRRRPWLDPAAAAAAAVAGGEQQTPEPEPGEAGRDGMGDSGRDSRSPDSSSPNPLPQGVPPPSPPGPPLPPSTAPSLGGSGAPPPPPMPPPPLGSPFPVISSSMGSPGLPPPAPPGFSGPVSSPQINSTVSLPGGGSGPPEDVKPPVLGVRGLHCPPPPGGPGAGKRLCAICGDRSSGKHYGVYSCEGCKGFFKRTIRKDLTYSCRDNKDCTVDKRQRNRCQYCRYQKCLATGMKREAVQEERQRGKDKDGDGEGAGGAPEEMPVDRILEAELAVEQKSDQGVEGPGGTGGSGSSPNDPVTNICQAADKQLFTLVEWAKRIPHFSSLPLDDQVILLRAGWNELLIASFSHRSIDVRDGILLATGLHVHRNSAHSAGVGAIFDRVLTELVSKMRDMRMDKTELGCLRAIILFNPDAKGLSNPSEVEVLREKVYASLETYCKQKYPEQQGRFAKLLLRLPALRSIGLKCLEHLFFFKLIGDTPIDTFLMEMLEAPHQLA

[2] = biological target: T2, Peroxisome proliferator-activated receptor delta (Homo sapiens, UniProt Q03181); experiment: Agonist activity at N-terminal Gal4 fused human PPARdelta LBD transfected in HEK293 cells after 24 hrs by luciferase reporter gene assay; format: cell-based
T2 sequence (Q03181 whole entry): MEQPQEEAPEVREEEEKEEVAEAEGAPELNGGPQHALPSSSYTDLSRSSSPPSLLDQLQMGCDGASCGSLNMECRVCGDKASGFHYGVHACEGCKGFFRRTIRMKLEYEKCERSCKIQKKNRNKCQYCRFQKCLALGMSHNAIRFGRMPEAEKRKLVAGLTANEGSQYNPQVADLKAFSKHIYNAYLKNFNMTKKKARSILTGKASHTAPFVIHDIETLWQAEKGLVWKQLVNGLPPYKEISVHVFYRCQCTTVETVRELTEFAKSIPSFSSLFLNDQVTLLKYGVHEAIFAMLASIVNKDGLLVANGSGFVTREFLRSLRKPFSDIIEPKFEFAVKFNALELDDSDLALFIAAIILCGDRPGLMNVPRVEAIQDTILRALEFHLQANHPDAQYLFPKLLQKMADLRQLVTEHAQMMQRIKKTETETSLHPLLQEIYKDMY

[3] = biological target: T3, Bile acid receptor (Homo sapiens) (UniProt Q96RI1); experiment: Agonist activity at FXR (unknown origin) at < 20 uM
T3 sequence (whole entry): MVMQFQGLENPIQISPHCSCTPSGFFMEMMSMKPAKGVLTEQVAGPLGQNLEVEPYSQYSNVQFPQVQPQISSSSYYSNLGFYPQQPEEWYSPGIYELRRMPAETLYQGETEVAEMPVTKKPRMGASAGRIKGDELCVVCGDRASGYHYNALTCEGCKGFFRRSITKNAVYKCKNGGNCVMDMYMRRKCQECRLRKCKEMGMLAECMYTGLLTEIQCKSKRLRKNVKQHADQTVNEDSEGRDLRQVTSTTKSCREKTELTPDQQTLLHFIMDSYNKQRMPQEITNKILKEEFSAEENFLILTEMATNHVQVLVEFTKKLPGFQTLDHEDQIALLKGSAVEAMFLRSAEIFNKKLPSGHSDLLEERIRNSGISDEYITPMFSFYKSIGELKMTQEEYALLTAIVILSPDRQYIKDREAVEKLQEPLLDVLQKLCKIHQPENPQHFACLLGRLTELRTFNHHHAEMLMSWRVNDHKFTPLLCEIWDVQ

[4] = biological target: T4, Oxysterols receptor LXR-beta (Homo sapiens) (UniProt P55055); experiment: Agonist activity at LXRbeta (unknown origin) at < 20 uM
T4 sequence (whole entry): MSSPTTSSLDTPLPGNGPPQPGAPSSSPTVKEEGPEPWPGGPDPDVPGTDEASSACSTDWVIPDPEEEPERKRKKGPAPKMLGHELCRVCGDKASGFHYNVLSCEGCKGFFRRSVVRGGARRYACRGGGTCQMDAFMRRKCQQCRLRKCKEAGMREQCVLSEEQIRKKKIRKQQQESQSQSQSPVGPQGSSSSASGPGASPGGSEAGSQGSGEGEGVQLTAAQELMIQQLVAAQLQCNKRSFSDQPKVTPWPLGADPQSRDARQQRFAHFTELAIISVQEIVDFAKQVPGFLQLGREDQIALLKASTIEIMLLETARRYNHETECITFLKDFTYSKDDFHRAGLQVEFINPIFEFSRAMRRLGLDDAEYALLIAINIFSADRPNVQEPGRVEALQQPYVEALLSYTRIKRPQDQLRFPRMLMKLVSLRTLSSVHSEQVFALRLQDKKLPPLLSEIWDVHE

[5] = biological target: T5, Peroxisome proliferator-activated receptor delta (Homo sapiens) (UniProt Q03181); experiment: Agonist activity at N-terminal Gal4 fused human PPARdelta LBD transfected in HEK293 cells after 24 hrs by luciferase reporter gene assay relative to GW501516; format: cell-based
T5 sequence (whole entry): T2 sequence (Q03181 whole entry)

- Activity [1]: inactive
- EC50 [2]: 0.046 µM
- Activity [3]: inactive
- Activity [4]: inactive
- Emax [5]: 5 to 10%
Structure (SMILES): CC(=O)NC(C)c1nc(-c2ccc(Oc3ccc(OCc4ccccc4)cc3)cc2)no1 (stereo not given)
